PMC2994747, “Molecular Characterization of c-Abl/c-Src Kinase Inhibitors Targeted against Murine Tumour Progenitor Cells that Express Stem Cell Markers” (PLoS ONE, 2010)

What was measured:
CaCo2 [1] = assay: Western blot, semi-quantitative protein expression; assay type: cell-based, human
Method: (§1) For the Western Blot analysis, cells were rinsed and lysed as previously described. An amount of 25 µg protein was used for SDS-PAGE. Antibodies for c-Abl (sc-131), Actin (sc-1616), Cdc2-p34 (sc-8395), EPS15 (sc-1840), FAK (sc-558), c-Fos (sc-52), p38 (sc-7972), p53 (sc-6243) and STAT5 (sc-835x) were obtained from Santa Cruz (Santa Cruz Biotechnology, Heidelberg, Germany), while c-Src (2109) and phospho-Src Y416 (2101) were purchased from Cell Signaling (Cell Signaling Technology, Frankfurt a. M., Germany). The EGFR (06-847), phospho-EGFR Y992 (07-821) and phospho-EGFR Y1045 (04-284) stem from Upstate (Upstate, Schwalbach, Germany) and the hnRNP-K (A300-676A) from Bethyl Labs (Bethyl Laboratories, Montgomery, Texas, USA). Finally p73 (IMG-246) was supplied by Imgenex (Imgenex, Hamburg, Germany). Depending on the primary antibody the secondary antibodies were either horseradish peroxidase-conjugated anti-mouse (AP 160P), anti-rabbit (AP 132P) or anti-sheep (AP 147P) (Chemicon, Schwalbach, Germany).
(§2) Semi-quantitative analysis were carried out with Kodak 1D Image Analysis Software in reference to the vehicle treated control cells (see supplementary table S7).

A549 [2] = assay: Western blot, semi-quantitative protein expression; assay type: cell-based, human
Method: as §1, §2

A2C12 = assay: Western blot, semi-quantitative protein expression; assay type: cell-based, mouse
Method: as §1, §2

all tested cell lines = assay: Caspase-Glo 3/7 activity assay, all tested cell lines; assay type: cell-based; conditions: IC50 concentration, 24 h; vs vehicle
Method: According to instructions, Caspase-Glo® 3/7 assay (Promega GmbH, Mannheim, Germany) was used for monitoring caspase activity. Briefly, the same volume Caspase-Glo reagent as culture medium was added and incubated 1 h at room temperature. Luminescence was read with a Victor3 Wallac 1420 Multilabel counter (PerkinElmer, Rodgau, Germany). Background absorbance (medium only) was subtracted and the data given as percent of vehicle controls.

CaCo2 [3] = assay: Cell cycle analysis by flow cytometry; assay type: cell-based, human; conditions: IC50 concentration, 96 h
Outline: (§3)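 Step one: detach cells with trypsin and rinse with PBS. Step two: pellet, then treat with solution A for 10 min at room temperature. Step three: add solutions B and C, with the final incubation cold (4°C) and dark, before cytometric acquisition.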

HepG2 = assay: Cell cycle analysis by flow cytometry; assay type: cell-based, human; conditions: IC50 concentration, 96 h
Outline: as §3

A549 [4] = assay: Cell cycle analysis by flow cytometry; assay type: cell-based, human; conditions: IC50 concentration, 96 h
Outline: as §3

GammaA3 = assay: Whole genome expression analysis (Affymetrix microarray); assay type: cell-based, mouse
Method: The cells were harvested and RNA was isolated using RNeasy Mini Kit (Qiagen, Hilden, Germany) according to the instructions of the manufacturer. The isolated RNA (250 ng) was processed further using standard protocols as described recently with the exception of the 3′ IVT Express Kit (Affymetrix, High Wycombe, UK) that was utilized according to instructions. Quality control of cRNA was done with the Agilent 2100 Bioanalyzer (Agilent Tech according to manufacturer's protocols. Following fragmentation, cRNA of each sample was hybridized to Affymetrix GeneChip® Mouse Genome 430 2.0 or Human Genome U133 Plus 2.0 and scanned with an Affymetrix 3000 7G scanner.
The resultant data was normalized by Probe Logarithmic Intensity Error Estimation (PLIER) algorithm. Statistical analysis was carried out with the ArrayTrack software (National Center for Toxicological Research/FDA, Jefferson, AR, USA) using SAM algorithm.

[5] = tested on: human and murine cell lines; assay: Western blot, statements over human and murine cell lines; assay type: cell-based; conditions: lung cancer cell lines; IC50 concentration, 96 h
Method: as §1, §2

[6] = IC50 concentration, 96 h, SAM FDR<0.01, FC>2

Fc1ccccc1CNc1ncnc2c1cnn2CC(Cl)c1ccc(Br)cc1 (stereo not drawn) [Si162]
Actin protein expression (CaCo2 [1]): 116 | Cdc2-p34 protein expression (CaCo2 [1]): 43 | EGFR Y992-p protein expression (CaCo2 [1]): 178 | EGFR Y1045-p protein expression (CaCo2 [1]): 131 | EPS15 protein expression (CaCo2 [1]): 42 | FAK protein expression (CaCo2 [1]): 52 | STAT5 protein expression (CaCo2 [1]): 69 | c-Abl protein expression (CaCo2 [1]): 114 | c-Fos protein expression (CaCo2 [1]): 35 | c-Src Y416-p protein expression (CaCo2 [1]): 213 | c-Src protein expression (CaCo2 [1]): 88 | hnRNP-K protein expression (CaCo2 [1]): 62 | p38 protein expression (CaCo2 [1]): 29 | p53 protein expression (CaCo2 [1]): 55 | p73 protein expression (CaCo2 [1]): 43 | Actin protein expression (A549 [2]): 62 | Cdc2-p34 protein expression (A549 [2]): 5.47 | EGFR Y1045-p protein expression (A549 [2]): 7 | EGFR protein expression (A549 [2]): 0.418 | EPS15 protein expression (A549 [2]): 10 | FAK protein expression (A549 [2]): 46 | STAT5 protein expression (A549 [2]): 17 | c-Abl protein expression (A549 [2]): 8.56 | c-Fos protein expression (A549 [2]): 10 | c-Src protein expression (A549 [2]): 49 | hnRNP-K protein expression (A549 [2]): 39 | p38 protein expression (A549 [2]): 19 | p53 protein expression (A549 [2]): 48 | p73 protein expression (A549 [2]): 10 | c-Src autophosphorylation (Tyr416), in words (A549 [2]; IC50 concentration, 96 h): inhibition of c-Src autophosphorylation | Actin protein expression (A2C12): 99 | EGFR Y992-p protein expression (A2C12): 16 | EGFR Y1045-p protein expression (A2C12): 0.417 | EGFR protein expression (A2C12): 23 | EPS15 protein expression (A2C12): 104 | FAK protein expression (A2C12): 52 | STAT5 protein expression (A2C12): 34 | c-Abl protein expression (A2C12): 50 | c-Fos protein expression (A2C12): 60 | c-Src protein expression (A2C12): 121 | hnRNP-K protein expression (A2C12): 60 | p38 protein expression (A2C12): 20 | p53 protein expression (A2C12): 131 | p73 protein expression (A2C12): 40 | Change of caspase-3/7 activity in all cell lines (all tested cell lines): increased | Cells in G1 phase (CaCo2 [3]): 41.3% | Cells in G2 phase (CaCo2 [3]): 12.3% | Cells in S phase (CaCo2 [3]): 46.4% | Cells in G1 phase (HepG2): 17.8% | Cells in G2 phase (HepG2): 63% | Cells in S phase (HepG2): 19.3% | Cells in G1 phase (A549 [4]): 8.5% | Cells in G2 phase (A549 [4]): up to 72.3% | Cells in S phase (A549 [4]): 19.2% | Cells in G2 phase (A549 [4]; listed as Si 162): 72.3% | Actg2 (actin, gamma 2, smooth muscle, enteric) regulated gene, Si162 vs Ktr FC (GammaA3): -4.78 | Bcl2l11 (BCL2-like 11 (apoptosis facilitator) (Bim)) regulated gene, Si162 vs Ktr FC (GammaA3): 1.33 | Birc5 (baculoviral IAP repeat-containing 5) regulated gene, Si162 vs Ktr FC (GammaA3): -3.04 | Capn5 (calpain 5) regulated gene, Si162 vs Ktr FC (GammaA3): 1.96 | Casp6 (caspase 6, apoptosis-related cysteine peptidase) regulated gene, Si162 vs Ktr FC (GammaA3): 1.07 | Ccna2 (cyclin A2) regulated gene, Si162 vs Ktr FC (GammaA3): -2.93 | Ccnb2 (cyclin B2) regulated gene, Si162 vs Ktr FC (GammaA3): -2.44 | Cdc2 (cell division cycle 2 (Cdk1)) regulated gene, Si162 vs Ktr FC (GammaA3): -2.12 | Cdkn1a (cyclin-dependent kinase inhibitor 1A (p21Cip1)) regulated gene, Si162 vs Ktr FC (GammaA3): 1.27 | Cdkn2b (cyclin-dependent kinase inhibitor 2B (p15)) regulated gene, Si162 vs Ktr FC (GammaA3): 1.13 | Cdkn3 (cyclin-dependent kinase inhibitor 3) regulated gene, Si162 vs Ktr FC (GammaA3): -2.80 | Cenpa (centromere protein A) regulated gene, Si162 vs Ktr FC (GammaA3): -2.62 | Crk (v-crk sarcoma virus CT10 oncogene homolog (avian)) regulated gene, Si162 vs Ktr FC (GammaA3): -2.00 | Ctnnb1 (catenin (cadherin-associated protein), beta 1, 88kDa) regulated gene, Si162 vs Ktr FC (GammaA3): 1.94 | Ctsb (cathepsin B) regulated gene, Si162 vs Ktr FC (GammaA3): 1.20 | Cxcl12 (chemokine (C-X-C motif) ligand 12) regulated gene, Si162 vs Ktr FC (GammaA3): -2.74 | Dgka (diacylglycerol kinase, alpha 80kDa) regulated gene, Si162 vs Ktr FC (GammaA3): 2.90 | Fas (Fas (TNF receptor superfamily, member 6)) regulated gene, Si162 vs Ktr FC (GammaA3): 1.40 | Gadd45a (growth arrest and DNA-damage-inducible, alpha) regulated gene, Si162 vs Ktr FC (GammaA3): 2.78 | Grb10 (growth factor receptor-bound protein 10) regulated gene, Si162 vs Ktr FC (GammaA3): 3.65 | Gsk3b (glycogen synthase kinase 3 beta) regulated gene, Si162 vs Ktr FC (GammaA3): 1.12 | Itga6 (integrin, alpha 6) regulated gene, Si162 vs Ktr FC (GammaA3): 4.04 | Jakmip3 (janus kinase and microtubule interacting protein 3) regulated gene, Si162 vs Ktr FC (GammaA3): 4.07 | Lrdd (leucine-rich repeats and death domain containing (Pidd)) regulated gene, Si162 vs Ktr FC (GammaA3): 1.03 | Mdm2 (Mdm2 p53 binding protein homolog (mouse)) regulated gene, Si162 vs Ktr FC (GammaA3): 2.15 | Mmp3 (matrix metallopeptidase 3 (stromelysin 1, progelatinase)) regulated gene, Si162 vs Ktr FC (GammaA3): 2.73 | Mmp13 (matrix metallopeptidase 13 (collagenase 3)) regulated gene, Si162 vs Ktr FC (GammaA3): 2.98 | Nfib (nuclear factor I/B) regulated gene, Si162 vs Ktr FC (GammaA3): -1.23 | Notch3 (Notch homolog 3 (Drosophila)) regulated gene, Si162 vs Ktr FC (GammaA3): 2.78 | Ogn (osteoglycin) regulated gene, Si162 vs Ktr FC (GammaA3): -5.01 | Perp (PERP, TP53 apoptosis effector) regulated gene, Si162 vs Ktr FC (GammaA3): 6.09 | Pik3ca (phosphoinositide-3-kinase, catalytic, alpha polypeptide) regulated gene, Si162 vs Ktr FC (GammaA3): 1.27 | Plcg2 (phospholipase C, gamma 2) regulated gene, Si162 vs Ktr FC (GammaA3): 1.36 | Plk1 (polo-like kinase 1 (Drosophila)) regulated gene, Si162 vs Ktr FC (GammaA3): -3.17 | Pmaip1 (phorbol-12-myristate-13-acetate-induced protein 1 (Noxa)) regulated gene, Si162 vs Ktr FC (GammaA3): 1.94 | Ptk2 (PTK2 protein tyrosine kinase 2 (FAK)) regulated gene, Si162 vs Ktr FC (GammaA3): 1.99 | Rock1 (Rho-associated, coiled-coil containing protein kinase 1) regulated gene, Si162 vs Ktr FC (GammaA3): 1.14 | Spp1 (secreted phosphoprotein 1) regulated gene, Si162 vs Ktr FC (GammaA3): 1.01 | Srf (serum response factor) regulated gene, Si162 vs Ktr FC (GammaA3): -1.12 | Tec (tec protein tyrosine kinase) regulated gene, Si162 vs Ktr FC (GammaA3): 3.51 | Tgfb2 (transforming growth factor, beta 2) regulated gene, Si162 vs Ktr FC (GammaA3): -1.69 | Tnc (tenascin C) regulated gene, Si162 vs Ktr FC (GammaA3): -1.32 | Zyx (zyxin) regulated gene, Si162 vs Ktr FC (GammaA3): -1.59 | Significantly regulated genes, total (number) (GammaA3; IC50 concentration, 96 h): more than 3500 | Significantly differentially regulated genes, downregulated (number) (GammaA3; [6]): 1139 | Significantly differentially regulated genes, upregulated (number) (GammaA3; [6]): 2453 | Repression of FAK protein [5]: up to 50%
